Laboratory results taken from article PMC8674134, “Safety and efficacy of avapritinib in advanced systemic mastocytosis: the phase 1 EXPLORER trial” (Nature Medicine, 2021).
“Also recorded” adds a separate entry of the source.

Experiments:
[1] = test system: KIT D816V variant allele fraction; assay: KIT D816V variant allele fraction in BM by central ddPCR; assay type: in vivo, human; conditions: for Complete elimination of measurable KIT D816V VAF, patients: post hoc
Experimental: Other secondary endpoints included PK, DOR and changes in measures of mast cell burden (percentage of BM mast cells, serum tryptase concentration, KIT D816V VAF by ddPCR (detection limit 0.17%), and spleen and liver volumes). PROs were measured by daily completion of AdvSM-SAF (described below) for patients in part 2 as a secondary outcome[37]–[39]. Exploratory endpoints included time to response, PFS and OS.
Responses were assessed according to the protocol schedule. Spleen size was assessed by palpation and by imaging with calculation of volume centrally. KIT D816V VAF in the BM (or in blood if unavailable) was centrally measured using a validated ddPCR assay with a lower limit of detection of 0.17% (Bio-Rad). Other somatic mutations in BM were centrally assayed at baseline by next-generation sequencing.

SM-associated symptoms = assay: On-study corticosteroid usage; assay type: in vivo, human
Experimental: At baseline, approximately one-third of patients overall (29 patients; 34%) were using corticosteroids. After baseline, as a result of improvement in SM-associated symptoms, 19 patients (66%) reduced their corticosteroid usage, of whom 12 (41%) patients discontinued corticosteroid use entirely, while 7 (24%) were able to reduce the dose.
Corticosteroid treatment, not exceeding doses administered during screening, was permitted; doses higher than 20 mg daily prednisone equivalent were avoided, and prolonged treatment (>14 d) with high-dose corticosteroids rendered patients ineligible for response assessment.

[2] = test system: advanced systemic mastocytosis (AdvSM); assay: Kaplan–Meier estimates of DOR, PFS and OS; assay type: in vivo, human
Experimental: Spleen response was determined for patients with baseline splenomegaly (spleen ≥ 5 cm by palpation) and was assessed by palpation or spleen volume by imaging (that is, ≥35% reduction from baseline in spleen volume based on central imaging); presence of either criterion was considered a response. DOR started at the first evidence of a response in any evaluable C-finding (per mIWG-MRT-ECNM criteria) and ended at the time a response was lost (that is, loss of response per mIWG-MRT-ECNM criteria). For patients who were still responding at the time of analysis, DOR was censored at the latest time point that the patient is assessed as having clinical improvement or better. OS was analyzed in the safety population and was defined as the time from first dose to the time of death due to any cause. PK data were summarized for patients with sufficient plasma concentration–time data. Descriptive statistics were used to summarize PK parameters for each dose level, as appropriate.
ORR was defined as the proportion of patients with a confirmed best response of CR, CRh, PR or clinical improvement by mIWG-MRT-ECNM consensus criteria. Time to CR/CRh/PR was defined as the time from the start of treatment to the time a CR/CRh/PR by mIWG-MRT-ECNM was first met. DOR was defined as the time from first documented response to the date of first documented progressive disease/loss of response or death due to any cause, whichever occurred first. OS was defined as the time from the start of treatment to the date of death. PFS was defined as the time from the start of treatment to the date of first documented progressive disease or death due to any cause, whichever occurred first. Progressive disease was defined per mIWG-MRT-ECNM criteria as worsening of ≥1 baseline C-finding confirmed for at least 4 weeks, or progression to acute myeloid leukemia.
OS, PFS and DOR were determined by Kaplan–Meier estimates, and 95% CIs were estimated using Greenwood’s formula[41]. Comparisons between two Kaplan–Meier functions was performed using a log-rank test.

[3] = test system: patients with AdvSM and other myeloid malignancies; assay: 3 + 3 dose escalation: MTD, DLT and RP2D; assay type: in vivo
Experimental: This phase 1, open-label study comprised a dose-escalation phase (part 1) and a dose-expansion phase (part 2; Fig. 1). During dose escalation, patients received oral avapritinib at starting doses ranging from 30 to 400 mg QD in continuous 28-d treatment cycles. Dose escalation followed a 3 + 3 design (described below) until the MTD or RP2D was determined. During part 1, intra-patient dose escalation to assess dose levels not exceeding the MTD was allowed. Dose expansion was initially conducted at a starting dose of 300 mg QD; a second expansion cohort at 200 mg QD was subsequently introduced via protocol amendment. Dosing continued until patients experienced unacceptable toxicity, disease progression, death or withdrew consent.
The 3 + 3 dose-escalation design used cohorts of three to six patients. The first cohort received avapritinib at a starting dose of 30 mg daily. […] Three patients were enrolled initially in each cohort with an additional accrual of three patients if the cohort required expansion due to DLT. Once the escalation cohort was full, up to three additional patients (diagnosis of AdvSM only) could be enrolled into an enrichment cohort at a lower dose. Data from these patients were intended for further exploration of PK, pharmacodynamics and safety in patients with AdvSM.
The safety population included all enrolled patients and was used to report AEs and PROs (in those who completed the questionnaire). The dose-determining population included all patients in a cohort in part 1 who received ≥21 prescribed avapritinib doses in C1 and completed follow-up through C1, or experienced DLT. The determination of the MTD and RP2D were based on the dose-determining population. […] The AdvSM safety population was also used to report AEs and OS. […] The response-evaluable population was used to report adjudicated response rates and PFS. The PK population comprised all patients with sufficient plasma concentration–time data to reliably estimate the PK parameters of avapritinib.

KIT D816V = test system: KIT D816V; set-up: method as in PMID 29093181; conditions: immunoblot in a xenograft model; cited from earlier work

With `Cn1cc(-c2cc3c(N4CCN(c5ncc([C@@](C)(N)c6ccc(F)cc6)cn5)CC4)ncnn3c2)cn1` [avapritinib] the “Patients with KIT D816V VAF in BM reduced from baseline by ≥50%” value ([1]; patients with AdvSM, ddPCR) was 80%, the “Patients in whom KIT D816V VAF in BM became undetectable” value ([1]; patients with AdvSM, ddPCR limit of detection 0.17%) was 30% and the “Complete elimination of measurable KIT D816V VAF, patients” value (“Complete elimination” below) ([1]; best response CR (n = 8)) was 63%. The “Complete elimination” value ([1]; best response CRh (n = 8)) was 50%, the “Complete elimination” value ([1]; best response PR (n = 13)) was 23% and the “Complete elimination” value ([1]; clinical improvement (n = 2) or stable disease (n = 11)) was 15%. The “Patients able to reduce the corticosteroid dose” value (SM-associated symptoms; 7 of 29 patients using corticosteroids at baseline) was 24%, the “Patients who discontinued corticosteroid use entirely” value (SM-associated symptoms; 12 of 29 patients using corticosteroids at baseline) was 41% and the “Patients who reduced their corticosteroid usage” value (SM-associated symptoms; 19 of 29 patients using corticosteroids at baseline) was 66%. The “Median duration of response (DOR)” value ([2]; 95% CI, 22 months–not estimable) was 38 months, the “Estimated 24-month DOR rate” value ([2]; 95% CI, 49–84%) was 67% and the “Estimated 12-month DOR rate” value ([2]; 95% CI, 72–96%) was 84%. For the same molecule, the “Median OS” value ([2]; AdvSM safety population (n = 69), median follow-up 23 months) was “not reached”, the “Estimated 24-month OS rate” value ([2]; overall AdvSM, 95% CI, 64–87%) was 76% and the “Estimated 24-month OS rate” value ([2]; patients with ASM) was 100%. The “Estimated 24-month OS rate” value ([2]; patients with MCL, 95% CI, 76–100%) was 92%, the “Estimated 24-month OS rate” value ([2]; patients with SM-AHN) was 67% and the “OS (24-month OS rate)” value ([2]; patients with a MARS of 0–1, post hoc) was 100%. For the same molecule, the “Estimated PFS rate at 24 months” value ([2]; response-evaluable population (n = 53), 95% CI, 48–79%) was 63%, the “Estimated PFS rate at 12 months” value ([2]; response-evaluable population (n = 53), 95% CI, 73–94%) was 84% and the “Patients who progressed to acute myeloid leukemia” value ([2]; six patients, during the study) was 9%. The “Maximum tolerated dose (MTD)” value ([3]; doses of 30–400 mg once daily) was “No maximum tolerated dose (MTD) was determined; also recorded: not reached”, the “Recommended phase 2 dose (RP2D)” value ([3]; human, in vivo, 28 d) was 200 mg and the “Recommended phase 2 dose (RP2D) initially selected for part 2” value ([3]; human, in vivo, 28 d) was 300 mg QD. The “Patients with dose-limiting toxicity (DLT)” value ([3]; in vivo) was “one” and the “In vivo IC90 for inhibition of KIT D816V in xenograft model” value (KIT D816V) was 0.189 µg/mL.
